# Results published in publication PMC4643876, “Picomolar Inhibition of Plasmepsin V, an Essential Malaria Protease, Achieved Exploiting the Prime Region” (PLoS ONE, 2015).
# Several values for one entry are separate records, joined by “and”; a condition that tells them apart may be missing. Equal entries are not always repeated. Where two headings read alike, the source gives them in different places. * marks the point of attachment. DABCYL = CN(C)c1ccc(/N=N/c2ccc(C(=O)*)cc2)cc1; EDANS = O=S(=O)(O)c1cccc2c(NCCN*)cccc12
# Columns and labels:
# [1] = molecular target: T1, Plasmepsin V (PmV) (Plasmodium falciparum, UniProt Q8I6Z5); assay: PmV inhibition, fluorimetric PExEl cleavage assay; format: biochemical
# T1 construct: PmV was purified directly from parasites; made in house
# T1 sequence (Q8I6Z5 whole entry): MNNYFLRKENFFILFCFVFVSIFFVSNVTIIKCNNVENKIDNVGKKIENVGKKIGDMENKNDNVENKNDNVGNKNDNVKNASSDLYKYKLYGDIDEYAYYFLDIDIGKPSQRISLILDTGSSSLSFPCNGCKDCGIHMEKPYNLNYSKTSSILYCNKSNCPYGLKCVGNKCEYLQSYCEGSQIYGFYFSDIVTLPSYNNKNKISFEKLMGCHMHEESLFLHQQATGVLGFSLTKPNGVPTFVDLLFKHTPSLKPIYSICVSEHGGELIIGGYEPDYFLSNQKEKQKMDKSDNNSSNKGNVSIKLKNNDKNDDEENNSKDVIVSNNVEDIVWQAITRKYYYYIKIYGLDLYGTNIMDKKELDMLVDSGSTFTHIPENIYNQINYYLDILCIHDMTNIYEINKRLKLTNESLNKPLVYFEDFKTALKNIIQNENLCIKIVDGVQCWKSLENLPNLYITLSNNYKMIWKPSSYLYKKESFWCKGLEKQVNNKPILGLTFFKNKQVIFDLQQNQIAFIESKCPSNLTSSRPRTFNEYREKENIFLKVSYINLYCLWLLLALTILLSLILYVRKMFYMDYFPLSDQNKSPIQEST
# Procedure: Saponin was added to culture to a final 0.05%; parasites were recovered via centrifugation at 4°C after 5 min of incubation on ice; parasite pellets were then washed twice in cold PBS and either immediately lysed or stored at -80°C until lysis. Parasites were lysed via three pulses of ultra-sonication of 10 sec duration, in PBS containing 0.5% Triton-X100 (TX-100). […] Quick washes of the resin were performed either in batches, or over columns, to remove unbound cellular material (four with ice-cold 0.5% TX-100 in PBS and a final one with cold PBS). Resin-bound PmV was stored in PBS at 4°C and used within 2–3 weeks, larger batches had Glycerol added to them, up to 10%, and were stored at -20°C for up to 5 months. […] Quality and purity of PmV batches were routinely confirmed by protein electrophoresis. Quantification of PmV was performed via densitometry analysis of stained protein SDS-PAGE gels relative to BSA standard curves.
# (§1) PExEl cleavage activity was monitored by fluorimetric measurement of PExEl cleavage, as previously reported. […] PmV activity was performed at 37°C in 50 mM Tris-Maleate, pH 6.5, 50 mM NaCl, 0.05% TX-100, 2 mM DTT. Assays were routinely conducted in triplicate. Bead-bound enzyme was added to the reaction using ‘end-cut’ micropipette tips in order to facilitate sampling the suspension.
# Inhibitory activities were measured in the presence of a substrate concentration of 3 μM by serial dilution of each compound in triplicates. […] Titration curves of the inhibitors were routinely composed of eleven points from 10 μM to 0.1 pM. PmV concentration was kept in the order of low picomolar (≤10 pM). […] Analysis of the half inhibitory activity (IC50) was performed by sigmoidal interpolation of the starting velocities of the hydrolytic reactions for each condition. Starting velocities were calculated on the initial linear range of the product progression curves. […] Data are presented with error bars indicating the standard deviation of three independent activity curves.
# [2] = test system: Plasmodium falciparum strain 3D7; assay: Parasite growth inhibition by flow cytometry, strain 3D7; format: cell-based; details: asynchronous 3D7 cultures, about 4 days, 0.195–200 μM, flow cytometry
# [3] = molecular target: T2, PmV-GFP (Plasmodium falciparum, UniProt Q8I6Z5); assay: Pull-down / co-precipitation of PmV-inhibitor complexes from DC6 lysates; format: binding
# T2 construct: parasite cellular lysates of DC6 a clone that constitutively expresses PmV-GFP; expressed in transfected cells; host or cells: Plasmodium falciparum clone DC6 (3D7-derived; PmV-GFP under the native PmV promoter), crude lysate
# T2 sequence (Q8I6Z5 whole entry): as above
# Procedure: Pull-down experiments were performed using parasite cellular lysates of DC6 a clone that constitutively expresses PmV-GFP [15]. […] [i] […] An anti-GFP antibody, 3E6, was added with protein A-agarose as above described and incubated 1 h at 4°C, with gentle agitation. The resin was washed 3 times with cold PBS and then boiled in Laemmli sample buffer for later biotin detection in a dot-blot format. [ii] […] Incubation was carried out for 1 h at 4°C gently maintaining the beads in suspension. Then the resin was washed 3 times with cold PBS and boiled in Laemmli sample buffer for subsequent protein western blot analysis of the pull-down material.
# [4] = pH 7.4
# [5] = molecular target: T1, Plasmepsin V (PmV); assay: PmV steady-state kinetics of substrate hydrolysis; format: biochemical
# Procedure: as §1
# Steady-state measurements of PmV substrate hydrolysis were analyzed assuming the widely accepted aspartic protease mechanism, E + S → ES → ET* → EP → E + P, where P is the product of the reaction; S is the substrate; E is the free enzyme; ES, ET* and EP denote the enzyme-substrate, the transition state and enzyme-product adducts, respectively. The measurement of steady-state velocity of product formation, v = d[P]/dt, yielded catalytic constants according to the classical Michaelis-Menten equation v = e * kcat *[S] / ([S] + K M), where e is enzyme concentration. In our experimental conditions the fluorescence of HETQ-EDANS (AnaSpec), the reaction product (P), was quantified by titration. PmV kinetics parameters were calculated using non-linear curve-fitting analyses from SigmaPlot on the basis of measurements with multiple substrate concentrations monitored until the completion of the reaction. […]
# [6] = test system: clone DC6; assay: Growth curve analysis over 10 days, clone DC6; format: cell-based, Plasmodium falciparum; design: growth rate (r): unit not given here; details: 0.75 μM Shield-1
# From the text: (§2) Fig 14 PmV-GFP-DD clone G6 generation and characterization. (A) Creation of a PmV-GFP-DD chimera by homologous recombination. […] The plasmid contains sequence from the PmV ORF 3’ end in frame with GFP-DD [24]. Relative positions of BsrGI restriction sites (vertical bars) and the probe are indicated. (B) Southern blot of BsrGI-restricted DNA from the parental strain 3D7, the 3 drug cycles (Selection I, II, III), 3 of the isolated clones, among which G6 is number 3, and the transfected plasmid (at the far right) is shown. Arrows: endogenous gene (blue), and modified PmV locus (green). (C) Live microscopy of the clone expressing the cytosolic YFP-DD chimera (via episomally maintained plasmid) and G6 in presence or absence of 0.5 μM Shield-1. Top to Bottom: bright field (grey), Hoechst (blue), fluorescent proteins (green), Lysotracker (red), merges of the blue and green channels and of all three channels. (D) Western blot of total lysates of parasites at diverse concentrations of Shield-1 (0–1 μM): clone DC6, clone G6 and 3D7 expressing YFP-DD. PmV was detected with both anti-GFP and anti-PmV. BiP detection served as loading control. (E) Live microscopy of the G6 clone expressing the PmV-GFP-DD chimera at various Shield-1 concentrations (0–1 μM). (F) PmV levels from DC6 (green) and G6 (red) were quantified from blot (panel D) and plotted as ratio of PmV to BiP. The last point of the ratio is affected by a reduced BiP expression in 1 μM Shield-1. This is possibly due to the level of toxicity of this molecule at high concentrations. (G) Flow cytometry analysis of the GFP signal of PmV-GFP-DD (clone G6) in presence (green line) or absence (red line) of 0.75 μM Shield-1 in respect of PmV-GFP (clone DC6) (black line). The cellular levels of PmV-GFP(±DD) are similar in the presence 0.75 μM Shield-1 while PmV-GFP-DD is about 4 times less than PmV-GFP in the absence of Shield-1. (H) Growth curve analysis over 10 days for PmV-GFP-DD and DC6 in the presence or absence of 0.75 μM Shield-1.
# [7] = test system: clone G6 (PmV-GFP-DD); assay: Growth curve analysis over 10 days, clone G6; format: cell-based, Plasmodium falciparum; design: growth rate (r): unit not given here; details: 0.75 μM Shield-1
# From the text: as §2
# [8] = 3 μM HRPII-PExEl substrate, averages of not less than three inhibition curves, read-out: IC50
Compound,Ki [1],"IC50 [1, 8]",LD50 growth inhibition [2],other results
CC(C)C[C@H](NC(=O)[C@@H](N)CCCNC(=N)N)C(=O)N[C@@H](CC(C)C)C(O)CN[C@@H](C)C(=O)N[C@@H](CCC(=O)O)C(=O)N[C@@H](C)C(=O)O (mixture of isomers) [Compound 4],0.7 nM,1.31 nM,> 200 µM,IC50 increase compared to Compound 1 [1]: 1.3–3.5 fold
CC(=O)N[C@@H](CCCNC(=N)N)C(=O)N[C@@H](CC(C)C)C(=O)N[C@@H](CC(C)C)C(O)CN[C@@H](C)C(=O)N[C@@H](CCC(N)=O)C(=O)N[C@@H](C)C(N)=O (mixture of isomers) [Compound 35],63.5 nM,118 nM,16.5 μM and ~ 16.5 μM,–
"O=c1oc2c(O)c(O)cc3c(=O)oc4c(O)c(O)cc1c4c23 [Ellagic acid, reference compound]",–,–,2.4 µM,–
CC(C)C[C@H](NC(=O)[C@@H](N)CCCNC(=N)N)C(=O)N[C@@H](CC(C)C)C(O)CN[C@@H](C)C(=O)N[C@@H](CCC(=O)O)C(=O)N[C@@H](C)C(N)=O (mixture of isomers) [Compound 1],0.2 nM,0.37 nM,> 200 µM,"IC50 ([1]; 3 μM substrate, read-out: IC50): 0.367 nM; IC50 ([1]; inhibitor added after the reaction was initiated, read-out: IC50): 0.329 nM; IC50 ([1]; pre-mixing the enzyme with inhibitor, read-out: IC50): 0.367 nM; greater inhibition efficiency relative to WEHI916 ([1]; side-by-side comparison): ~ 100 fold; competition of Compound 36 binding to PmV ([3]; 50 μM competitor): negatively affects the interaction between Compound 36 and PmV; logD [4]: -4.28"
DABCYL-LNKRLLHETQ-EDANS ({DABCYL}-LNKRLLHETQ-{EDANS}; SMILES CC(C)C[C@H](NC(=O)c1ccc(/N=N/c2ccc(N(C)C)cc2)cc1)C(=O)N[C@@H](CC(N)=O)C(=O)N[C@@H](CCCCN)C(=O)N[C@@H](CCCNC(=N)N)C(=O)N[C@@H](CC(C)C)C(=O)N[C@@H](CC(C)C)C(=O)N[C@@H](Cc1c[nH]cn1)C(=O)N[C@@H](CCC(=O)O)C(=O)N[C@H](C(=O)N[C@@H](CCC(N)=O)C(=O)NCCNc1cccc2c(S(=O)(=O)O)cccc12)[C@@H](C)O) [HRPII-derived fluorogenic substrate of PmV],–,–,–,Km [5]: 3.48 µM; K M ([5]; substrate 0.19 to 6 μM): 3.48 (±0.7) 10^−6 M
CC(C)C[C@H](NC(=O)[C@@H](N)CCCNC(=N)N)C(=O)N[C@@H](CC(C)C)[C@@H](O)CN[C@@H](C)C(=O)N[C@@H](CCC(N)=O)C(=O)N[C@@H](C)C(N)=O [Compound 8a],0.83 nM,1.55 nM,64.1 µM,IC50 increase compared to Compound 1 [1]: ~ 4 fold
CSCC[C@H](N)C(=O)N[C@@H](CC(C)C)C(=O)N[C@@H](CC(C)C)C(O)CN[C@@H](C)C(=O)N[C@@H](CCC(=O)O)C(=O)N[C@@H](C)C(=O)O (mixture of isomers) [Compound 16],–,> 10000 nM,> 200 µM,"IC50 ([1]; 3 μM substrate, tested up to 10 μM): completely inactive"
CC[C@H](C)[C@H](NC(=O)[C@@H](N)CCCNC(=N)N)C(=O)N[C@@H](CC(C)C)C(O)CN[C@@H](C)C(=O)N[C@@H](CCC(=O)O)C(=O)N[C@@H](C)C(N)=O (mixture of isomers) [Compound 5],0.35 nM,0.65 nM,> 200 µM,–
CC(C)C[C@H](NC(=O)[C@@H](N)CCC(N)=O)C(=O)N[C@@H](CC(C)C)[C@@H](O)CN[C@@H](C)C(=O)N[C@@H](CCC(=O)O)C(=O)N[C@@H](C)C(=O)O [Compound 17a],2360 nM,4390 nM,> 200 µM,–
CC[C@H](C)[C@H](NC(=O)[C@@H](N)CCCNC(=N)N)C(=O)N[C@@H](CC(C)C)C(O)CN[C@@H](C)C(=O)N[C@@H](CCC(=O)O)C(=O)N[C@@H](C)C(=O)O (mixture of isomers) [Compound 6],1.16 nM,2.16 nM,> 200 µM,IC50 increase compared to Compound 5 [1]: 1.3–3.5 fold
CC[C@H](C(=O)N1CCCC[C@H]1C(=O)O[C@H](CCc1ccc(OC)c(OC)c1)c1cccc(OCCN2CCOCC2)c1)c1cc(OC)c(OC)c(OC)c1 [Shield-1],–,–,–,doubling time (T) [6]: 34.83 h; growth constant (k) [6]: 0.0199; growth rate (r) [6]: 2.01; doubling time (T) [7]: 34.15 h; growth constant (k) [7]: 0.0203; growth rate (r) [7]: 2.05
CC(C)C[C@H](NC(=O)[C@H](CCCNC(=N)N)NC(=O)CCCNC(=O)CCCNC(=O)CCCC[C@@H]1SC[C@@H]2NC(=O)N[C@@H]21)C(=O)N[C@@H](CC(C)C)C(O)CN[C@@H](C)C(=O)N[C@@H](CCC(N)=O)C(=O)N[C@@H](C)C(=O)O (stereo partly drawn) [Compound 36],–,–,–,"interaction with PmV in pull-down / immuno-precipitation ([3]; DC6 lysate, 50 μM or streptavidin-resin bound): confirmed the interaction between our inhibitor and PmV"
CC(C)C[C@H](NC(=O)[C@@H](N)Cc1c[nH]c2ccccc12)C(=O)N[C@@H](CC(C)C)[C@@H](O)CN[C@@H](C)C(=O)N[C@@H](CCC(=O)O)C(=O)N[C@@H](C)C(N)=O [Compound 15a],1380 nM,2570 nM,~ 100.5 μM,–
CCCCCCCC(=O)N[C@@H](CCCNC(=N)N)C(=O)N[C@@H](CC(C)C)C(=O)N[C@@H](CC(C)C)[C@@H](O)CN[C@@H](Cc1ccc(O)cc1)C(=O)N[C@@H](CCC(=O)O)C(=O)N[C@@H](C)C(N)=O [Compound 37a],0.01 nM,0.023 nM,> 200 µM,"fold more active than parent compound 7a [1]: more than 50 fold; IC50 ([1]; 3 μM substrate, read-out: IC50): ~0.023 nM"
